Results on ten compounds are retold here after ChEMBL document CHEMBL1201862, “PubChem BioAssay data set” (2004).

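Five concentrations, 48 hours, 96-well plates. GI50 is the concentration that inhibits growth by half.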 Active and inactive are the calls of the source. No stated cut-off is given here; in the data, active = GI50 up to about 1.1 µM and inactive = higher.

Test systems include T47D; SNB-19; HT-29; SF-539; PC-3; U-251; K562; UACC-257; CCRF-CEM; ACHN; HCT-116; SF-268; SF-295; A549; MCF7; UACC-62; MDA-MB-435; HCC 2998; MDA-MB-231; UO-31.
What all share (experiment): DTP human tumour cell line panel, 48 h

Broadly, the GI50 is the concentration that inhibits growth by half. For the compound `CCOC(=O)CCc1c(C)c2ccc(O)cc2oc1=O`, the GI50 in the test on T47D, in the test on SNB-19, with HT-29, in the test with SF-539, in the test on PC-3 and in the test on U-251 was > 100 µM (inactive) each time. Further, the GI50 in the test with K562, in the test on UACC-257, with CCRF-CEM, with ACHN, in the test with HCT-116 and in the test on SF-268 was > 100 µM (inactive) throughout. Further, the GI50 in the test with SF-295, in the test with A549, in the test with MCF7, in the test with UACC-62, with MDA-MB-435 and in the test with HCC 2998 was > 100 µM (inactive) throughout. The GI50 with MDA-MB-231 is > 100 µM (inactive).
For the compound `NC(=O)/C=c1/c2ccccc2n2nc3ccccc3c12`, the GI50 is 19.2 µM (inactive) in the test on UO-31; 7.01 µM (inactive) with T47D; 20.1 µM (inactive) with SNB-19; 15.9 µM (inactive) in the test on HT-29; 13.3 µM (inactive) in the test with SF-539; 11 µM (inactive) with PC-3. Also, the GI50 was 12.9 µM (inactive) in the test on U-251; 15.3 µM (inactive) in the test with K562; 20.3 µM (inactive) in the test with UACC-257; 3.56 µM (inactive) in the test with CCRF-CEM; 13.6 µM (inactive) in the test with ACHN; 4.82 µM (inactive) in the test on HCT-116. Further, the GI50 in the test with SF-268 was 10.2 µM (inactive); in the test on SF-295 it was 31.1 µM (inactive); in the test on A549, 31.7 µM (inactive); with MCF7 it was 26.9 µM (inactive); in the test with UACC-62, 19.4 µM (inactive); with MDA-MB-435, 16 µM (inactive). The GI50 was 17 µM (inactive) in the test on HCC 2998 and 2.76 µM (inactive) in the test on MDA-MB-231.
As to `CCOP(=O)(CCC(O)CNc1nc(N)nc(Cl)c1/N=N/c1ccc(Cl)cc1)OCC` (stereo not drawn), the GI50 with UO-31 was 4.1 µM (inactive); in the test on T47D, 16.9 µM (inactive); in the test on HT-29, 15.3 µM (inactive); with SF-539, > 10 µM (inactive); in the test with PC-3, 12.4 µM (inactive); in the test with U-251, 11 µM (inactive). Also, the GI50 in the test on K562 is 13.6 µM (inactive); in the test on UACC-257, 13.6 µM (inactive); in the test on CCRF-CEM, 5.75 µM (inactive); in the test on ACHN it was 7 µM (inactive); with HCT-116, 14.7 µM (inactive); in the test with SF-268 it was 15.3 µM (inactive). For the same compound, the GI50 is 14.3 µM (inactive) in the test on SF-295; 14.5 µM (inactive) with A549; 11.5 µM (inactive) with MCF7; 13 µM (inactive) in the test with UACC-62; 13.2 µM (inactive) in the test with MDA-MB-435; 13.3 µM (inactive) in the test with HCC 2998. Moreover, the GI50 with MDA-MB-231 was 19.3 µM (inactive).
Take `CCCCCCCCCCCCCCCC1(OC)C[N+](C)(C)CCO1` (stereo not drawn): the GI50 in the test on T47D is 5.73 µM (inactive); in the test with SNB-19, 1.6 µM (inactive); in the test on HT-29 it was 1.22 µM (inactive); in the test with SF-539, 1.74 µM (inactive); with PC-3, 2.4 µM (inactive); in the test with U-251, 1.6 µM (inactive). Besides, the GI50 was 1.85 µM (inactive) in the test on K562; 2.08 µM (inactive) in the test on UACC-257; 0.637 µM (active) in the test on CCRF-CEM; 1.85 µM (inactive) in the test with ACHN; 1.63 µM (inactive) in the test on HCT-116; 2.08 µM (inactive) with SF-268. Further, the GI50 is 1.69 µM (inactive) with SF-295; 1.7 µM (inactive) in the test with A549; 0.221 µM (active) with MCF7; 2.76 µM (inactive) with UACC-62; 1.96 µM (inactive) in the test on MDA-MB-435; 2.54 µM (inactive) in the test with HCC 2998. Besides, the GI50 in the test with MDA-MB-231 was 1.75 µM (inactive).
For the compound `Cc1csc(NNC(=O)Nc2ccccc2)n1`, the GI50 was 45.7 µM (inactive) in the test with UO-31; > 100 µM (inactive) in the test with T47D; > 100 µM (inactive) with SNB-19; > 100 µM (inactive) in the test with HT-29; > 100 µM (inactive) in the test with SF-539; > 100 µM (inactive) in the test with PC-3. Besides, the GI50 in the test on U-251, in the test on K562, with UACC-257, in the test on CCRF-CEM, in the test on ACHN and in the test with HCT-116 was > 100 µM (inactive) each time. Moreover, the GI50 in the test with SF-268, in the test with SF-295, with A549, in the test on MCF7, in the test with UACC-62 and in the test on MDA-MB-435 was > 100 µM (inactive) each time. The GI50 in the test on HCC 2998 and in the test with MDA-MB-231 was > 100 µM (inactive) in each case.
In the case of `COc1cc(C(O)c2ccc3c(c2)OCO3)cc(OC)c1OC` (stereo not drawn), the GI50 with UO-31 is 61.2 µM (inactive); in the test with T47D it was 37.1 µM (inactive); in the test on SNB-19 it was > 100 µM (inactive); in the test with HT-29, > 100 µM (inactive); in the test with SF-539 it was > 100 µM (inactive); in the test with PC-3, > 100 µM (inactive). Also, the GI50 with U-251, with K562, in the test with UACC-257, in the test with CCRF-CEM, in the test on ACHN and in the test with HCT-116 was > 100 µM (inactive) each time. Moreover, the GI50 in the test with SF-268 was > 100 µM (inactive); in the test with SF-295 it was > 100 µM (inactive); in the test with A549, > 100 µM (inactive); in the test with MCF7, > 100 µM (inactive); in the test with UACC-62 it was > 100 µM (inactive); in the test on MDA-MB-435, 70 µM (inactive). Further, the GI50 in the test on HCC 2998 and with MDA-MB-231 was > 100 µM (inactive) in each case.
As for `Cc1cn(C(CO)OC(CO)CN(O)C2C3CC4CC(C3)CC2C4)c(=O)[nH]c1=O` (stereo not drawn), the GI50 in the test on UO-31, in the test with T47D, in the test on SNB-19, with HT-29, in the test on SF-539 and in the test with PC-3 was > 100 µM (inactive) each time. In addition, the GI50 in the test with U-251, in the test on K562, in the test with UACC-257, in the test on ACHN, in the test with HCT-116 and in the test with SF-268 was > 100 µM (inactive) in each case. Further, the GI50 in the test with SF-295, in the test with A549, in the test with MCF7, with UACC-62, in the test with MDA-MB-435 and with HCC 2998 was > 100 µM (inactive) each time. In the test with MDA-MB-231, the GI50 is > 100 µM (inactive).
In the case of `COC1CN(C)/C(=N\c2cccc3ccccc23)S1` (stereo not drawn), the GI50 with T47D, in the test on SNB-19, with HT-29, with SF-539, in the test with PC-3 and in the test on U-251 was > 10 µM (inactive) in each case. Moreover, the GI50 in the test on K562, in the test on UACC-257, in the test on CCRF-CEM, with ACHN, with HCT-116 and in the test on SF-268 was > 10 µM (inactive) in each case. Besides, the GI50 in the test with SF-295 is 2.75 µM (inactive); with A549, > 10 µM (inactive); in the test on MCF7 it was > 10 µM (inactive); in the test on UACC-62, > 10 µM (inactive); with MDA-MB-435 it was > 10 µM (inactive); in the test with HCC 2998, > 10 µM (inactive). Moreover, the GI50 in the test with MDA-MB-231 is > 10 µM (inactive).
On to `COc1ccccc1/[N+]([O-])=C/c1ccccc1OC(=S)S`, for which the GI50 in the test on UO-31 is 31 µM (inactive); with T47D, 17.6 µM (inactive); in the test on SNB-19, 99.3 µM (inactive); in the test with HT-29 it was > 100 µM (inactive); with SF-539, 57.1 µM (inactive); with PC-3 it was 34 µM (inactive). Further, the GI50 in the test with U-251 is 41.7 µM (inactive); in the test on K562, 29.5 µM (inactive); in the test on UACC-257 it was 28.1 µM (inactive); in the test with ACHN it was 49.3 µM (inactive); with HCT-116, 42 µM (inactive); in the test with SF-268, 33.7 µM (inactive). The GI50 was 32.2 µM (inactive) in the test with SF-295; > 100 µM (inactive) with A549; 23.7 µM (inactive) with MCF7; 32.9 µM (inactive) in the test with UACC-62; 16.7 µM (inactive) with MDA-MB-435; 14.7 µM (inactive) in the test on HCC 2998. For the same compound, the GI50 with MDA-MB-231 is 30.9 µM (inactive).
With `Oc1ccc(O)c(Cc2ccccc2)c1`, the GI50 was 15.1 µM (inactive) in the test with UO-31; 0.0887 µM (active) in the test on T47D; 53.1 µM (inactive) in the test on SNB-19; 37 µM (inactive) in the test with HT-29; 10.7 µM (inactive) in the test with SF-539; 27.9 µM (inactive) with PC-3. For the same compound, the GI50 is 20.1 µM (inactive) in the test with U-251; 10.6 µM (inactive) in the test with K562; 25.9 µM (inactive) in the test on UACC-257; 7.41 µM (inactive) in the test on CCRF-CEM; 14.8 µM (inactive) with ACHN; 12.5 µM (inactive) with SF-268. The GI50 in the test with SF-295 was 56.1 µM (inactive); in the test on A549, 37.2 µM (inactive); with MCF7 it was 15 µM (inactive); in the test on UACC-62 it was 20.2 µM (inactive); in the test with MDA-MB-435, 19.5 µM (inactive); in the test with HCC 2998, 93.1 µM (inactive). Also, the GI50 in the test with MDA-MB-231 was 19 µM (inactive).
